Measurements: US20010036955A1, “Method of inhibiting angiogenesis” (Genentech, Inc., priority 1998, published 2001)
*1 amine or outer side, *2 acyl side, *3 side chain or, on linkers, in order; H or OH if unused. Where a SMILES comes first, the peptide text is derived from it. Bridges are numbered along the chain shown (N, C = ends). Roman numbers before positions name the chains, in order. [ ]: non-standard residue; d: D form. Actinocin(9to1) = Cc1c2oc3c(C)ccc(C(=O)[*:1])c3nc-2c(C(=O)[*:2])c(N)c1=O; NMeV = CN[C@H](C(=O)O)C(C)C; Sar = CNCC(=O)O

Tests used:
Assay type in all cases: cell-based, human
HUVEC tube formation [1] = assay: Endothelial tube assay (number of tubes, three-dimensional collagen gels); details: for IC50: Homo sapiens, HUVEC in collagen gels with bFGF, VEGF and PMA, tubes counted at 48 hr, read-out: inhibition of tube formation, IC50; for inhibition of tube formation (FIG. 3B): at 100 μM; for formation of tube-like structures: endothelial cells in three-dimensional type I collagen lattice
Protocol: In this model, endothelial cells are suspended in a three-dimensional collagen lattice of type I collagen and undergo rapid morphogenesis. Within 4 hr numerous vacuoles are observed in the majority of endothelial cells; at 24 hr the formation of tube-like structures can be observed and at 48 hr an interconnected network of tube-like structures is observed.
Collagen gels were formed by mixing together ice-cold gelatin solution (10× M199, H2O, 0.53M NaHCO3, 200 mM L-glutamine, type I collagen, 0.1M NaOH, 100:27.2:50:10:750:62.5 by volume) and cells in 1× basal medium at a concentration of 3×10^6 cells/ml at a ratio of 4 volumes gelatin solution: 1 volume of cells. After gelation at 37 for 30 min, the gels were overlaid with IX basal medium consisting of M199 supplemented with 1%FBS, 1× ITS, 2 mM L-glutamine, 50 μg/ml ascorbic acid, 26.5 mM NaHCO3, 100 U/ml penicillin and 100 U/mil streptomycin supplemented with 40 ng/ml BFGF, 40 ng/ml VEGF and 80 nM phorbol myristate acetate (PMA). All drugs were added to the IX basal medium immediately after gelation. To quantitate tube formation, the number of tubes per high power (20× field) was determined 48 hr after addition of the basal medium Five independent fields separated by 100 μm optical sections were assessed for each well. Cytotoxicity was assessed using an XTT kit from Boehringer Mannheim (Indianapolis, Ind.).

HUVEC proliferation = assay: Proliferation assay (BrdU incorporation); details: type I collagen-coated surface, VEGF, bFGF and PMA
Protocol: Cells were cultured in above medium in the presence of drugs or vehicle for 4 hr. 5 μl (100 μM) of 5′-bromo-2′-deoxyuridine (BrdU) was added in a final volume of 100 μl/well and cells were incubated for another 20 hr. BrdU incorporation was evaluated by an ELISA kit from Boehringer Mannheim (Indianapolis, Ind.).

HUVEC tube formation [2] = assay: Endothelial tube assay of Example 7 (average tube length, 3-D type I collagen gels)
Protocol: Collagen gels were formed by mixing together ice-cold gelation solution (IOX M199, H2O, 0.53M NaHCO3, 200 mM L-glutamine, type I collagen, 0.1M NaOH, 100:27.2:50:10:750:62.5 by volume) and cells in 1× basal medium (see below) at a concentration of 3×10^6 cells/ml at a ratio of 4 volumes gelation solution: 1 volume of cells (18). After gelation at 37° C. for 30 min, the gels were overlaid with 1× basal medium consisting of M199 supplemented with […], 1× ITS, 2 mM L-glutamine, […] ascorbic acid, 26.5 mM NaHCO3, 100 U/ml penicillin and 100 U/ml streptomycin supplemented with 40 ng/ml bFGF, 40 ng/ml VEGF, 80 nM PMA or the combination of PMA (80 nM), bFGF and VEGF (40 ng/ml each). All drugs were added to the 1× basal medium immediately after gelation. To quantify tube formation, the average tube length was determined by measuring total tube length (long axis) in three consecutive layers of a low power (10×) field using Openlab software (Improvision Inc, England). Each layer was separated by 100 μm.

MMP-9 mRNA = assay: Real time RT-PCR (Taqman) assay in HUVEC, Example 7; details: for MMP-9 mRNA levels: 40 ng/ml, at 4 h and 24 h
Protocol: (§1) Total RNA was extracted from HUVEC cultured in 3-D type I collagen gels for various times in 1× basal medium supplemented with 40 ng/ml bFGF, 40 ng/ml VEGF, […] PMA or the combination of PMA (80 nM), bFGF and VEGF (40 ng/mil each). […] For all mRNAs evaluated a sample of total RNA (100 ng) was added to a 50 μl RT-PCR reaction mixture according to the manufacturer's protocol (Roche Molecular Systems, Inc., Branchburg, N.J.). The thermal cycling conditions included 1 cycle at 48° C. for 30 min, 1 cycle at 95° C. for 10 min, 40 cycles at 95° C. for 15 s, at 60° C. for 1 min, and finally hold at 25° C. for 2 min. Standard curves for expression of each gene were generated by serial dilution of the total RNA isolated from U937 cells. […] Therefore, the relative mRNA expression of each gene was normalized to the level of GAPDH in the same RNA preparation.

MMP-2 secretion = assay: Zymographic assay of HUVEC conditioned media
Protocol: (§2) The presence of gelatinases MMP-2 and -9 in conditioned media from cultured HUVEC in 3-D type I collagen gels was analyzed by zymography. Media from different treatments or from different time points were concentrated and then 10 μl aliquots were mixed with 2 × sample buffer without reducing agent or heating. Samples were loaded on a 10% polyacrilamide gel containing 0.1% gelatin (Novex, San Diego, Calif.) for electrophoresis. In addition to using regular molecular weight markers the MMP-2 and -9 zymographic standards (Chemicon, Temecula, Calif.) were used as standards for gelatinases. The gels were incubated for 30 min at room temperature in renaturing buffer and in developing buffer for overnight at 37° C., and then stained with 0.25% Coomassie brilliant blue (Sigma). Gelatinase activity was identified as lightly stained or clear bands following destaining.

MMP-9 secretion = assay: Zymographic assay of HUVEC conditioned media
Protocol: as §2

MMP-2 mRNA = assay: Real time RT-PCR (Taqman) assay in HUVEC, Example 7; details: 100 μM; 24 h
Protocol: as §1

[3] = at concentrations of up to 100 μM
[4] = PMA 0.8, 8, 80 and 800 nM for 24 h

Cc1c(C)c2c(c(C)c1O)CCC(C)(COc1ccc(CC3SC(=O)NC3=O)cc1)O2 (single isomer, unassigned; (+)) [troglitazone, (+)-5-[[4-[(3,4-dihydro-6-hydroxy-2,5,7,8-tetramethyl-2H-1-benzopyran-2-yl)methoxy]phenyl]methyl]-2,4-thiazolidinedione]
IC50 (HUVEC tube formation [1]): 6.2 µM

CC1=C(/C=C/C(C)=C\C=C\C(C)=C\C(=O)O)C(C)(C)CCC1 [9-cis-retinoic acid]
effect on tube formation (HUVEC tube formation [1]; 9-cis-retinoic acid 30 μM alone): no significant effect

CN(CCOc1ccc(CC2SC(=O)NC2=O)cc1)c1ccccn1 (stereo not shown) [BRL49653, 5-[4-[2-[N-methyl-N-(2-pyridyl)amino]ethoxy]benzyl]thiazolidine-2,4-dione]
IC50 (HUVEC proliferation; Homo sapiens, HUVEC, read-out: inhibition of endothelial cell (HUVEC) proliferation, IC50): 15.7 µM

CCCc1c(OCCCCc2nnn[nH]2)ccc(C(C)=O)c1O [LY 171883]
inhibition of tube formation (FIG. 3B) (HUVEC tube formation [1]): do not inhibit
inhibition of tube formation (HUVEC tube formation [1]; [3]): did not significantly inhibit

CCCCC[C@H](O)/C=C/[C@H]1[C@H](O)CC(=O)[C@@H]1CCCCCCC(=O)O [PGE1]
effect on HUVEC proliferation (HUVEC proliferation): did not affect

CCCCC[C@H](O)/C=C/[C@H]1[C@H](O)CC(=O)[C@@H]1C/C=C\CCCC(=O)O [PGE2]
effect on HUVEC proliferation (HUVEC proliferation): did not affect

CCCCCCCCCCCCCC(=O)O[C@@H]1[C@@H](C)[C@@]2(O)[C@@H](C=C(CO)C[C@]3(O)C(=O)C(C)=C[C@@H]23)[C@@H]2C(C)(C)[C@]12OC(C)=O [PMA, phorbol 12-myristate 13-acetate]
concentration giving maximal induction of tube formation (HUVEC tube formation [2]; [4]): 80 nM
tube formation (average tube length) (HUVEC tube formation [2]; [4]): dose-dependent increase
increase of MMP-9 mRNA levels between 24 h and 4 h (MMP-9 mRNA; HUVEC in 3-D collagen gels, PMA 80 nM, bFGF and VEGF 40 ng/ml each): more than 2 fold
MMP-2 secretion into the culture medium (MMP-2 secretion; [4]): dose-dependent stimulation
active MMP-2 in supernatants compared with either growth factor alone (MMP-2 secretion; gelatin zymography, PMA in the absence or presence of FGF and VEGF): more active MMP-2
MMP-9 secretion into the culture medium (MMP-9 secretion; [4]): dose-dependent stimulation
zymogen form of MMP-9 (92 kD) in culture supernatants (MMP-9 secretion; gelatin zymography, PMA or PMA in combination with bFGF and VEGF): detected

Cc1cccc(Nc2cc(Cl)nc(SCC(=O)O)n2)c1C [WY 14643]
HUVEC tube formation (HUVEC tube formation [2]; 100 μM, 3-D collagen gels): do not inhibit
MMP-9 mRNA expression (MMP-9 mRNA; 100 μM, 24 h): did not alter
MMP-2 mRNA expression (MMP-2 mRNA): did not alter
MMP-2 protein secretion (MMP-2 secretion; 100 μM, 24 h): did not alter
MMP-9 protein secretion (MMP-9 secretion; 100 μM, 24 h): did not alter
inhibition of tube formation (FIG. 3B) (HUVEC tube formation [1]): do not inhibit
inhibition of tube formation (HUVEC tube formation [1]; [3]): did not significantly inhibit

Cc1c2oc3c(C)ccc(C(=O)N[C@@H]4C(=O)N[C@H](C(C)C)C(=O)N5CCC[C@H]5C(=O)N(C)CC(=O)N(C)[C@@H](C(C)C)C(=O)O[C@@H]4C)c3nc-2c(C(=O)N[C@@H]2C(=O)N[C@H](C(C)C)C(=O)N3CCC[C@H]3C(=O)N(C)CC(=O)N(C)[C@@H](C(C)C)C(=O)O[C@@H]2C)c(N)c1=O [actinomycin D] (I: T[dV]P[Sar][NMeV] / II: T[dV]P[Sar][NMeV]; ester I:1-I:C, II:1-II:C; linker I:N-II:N via Actinocin(9to1))
formation of tube-like structures (HUVEC tube formation [1]): completely block

CC1(COc2ccc(CC3SC(=O)NC3=O)cc2)CCCCC1 (stereo not shown) [ciglitizone]
IC50 (HUVEC tube formation [1]): 2.7 µM

C[C@@H]1C[C@@H]([C@H](O)CC2CC(=O)NC(=O)C2)C(=O)[C@@H](C)C1 [cycloheximide]
formation of tube-like structures (HUVEC tube formation [1]): completely block

CCCCCCCC/C=C\CCCCCCCCCCCC(=O)O [erucic acid]
inhibition of tube formation (HUVEC tube formation [1]; 200 μM): did not significantly inhibit
inhibition of tube formation (FIG. 3B) (HUVEC tube formation [1]): do not inhibit

VEGF
MMP-9 mRNA levels (MMP-9 mRNA): at or below the limits of detection

bFGF: recombinant basic fibroblast growth factor
MMP-9 mRNA levels (MMP-9 mRNA): at or below the limits of detection
